# Reference: PMC11451635, “A Broad Spectrum Lasso Peptide Antibiotic Targeting the Bacterial Ribosome” (Research Square, 2024)
# Entries after “also recorded” stand apart in the source; their conditions may differ. Read-outs that look alike come from different tables or passages of the source. Where a SMILES comes first, the peptide text is derived from it. Bridges are numbered along the chain shown (N, C = ends).
# What was measured:
# E coli BW25113 ΔtolC = settings: 18–22 h
# [1] = test system: E. coli BW25113 ΔtolCΔbamB expressing various resistance genes; experiment: Cross-resistance with resistance mechanisms; settings: mutations or enzymatic resistance mechanisms; Extended Data Fig. 10
# [2] = test system: strains with deletions of the individual identified genes; experiment: MIC in deletion strains of identified ETC/respiration genes; format: cell-based; settings: deletions of genes related to ETC and respiration
# Procedure: (§1) MICs were determined using broth microdilution method in cation-adjusted Mueller-Hinton Broth (MHBII, BD Difco) following standard procedures unless stated otherwise. Mycobacteria susceptibility was tested in Middlebrook 7H9 medium supplemented with 10% OADC Enrichment (oleic acid, bovine albumin, dextrose, and catalase) (BD Difco). The compounds (2 to 4 μl) were mixed with diluted cultures (5–7 × 10^5 cfu/mL) in MHB (196 to 198 μL) in 96-well round-bottom plates, and 2-fold serial dilutions were made. Plates were incubated at 37°C for 18–22 h, and OD600 readings were taken on Synergy Microplate Reader (Biotek). MIC was determined to be the lowest concentration of antibiotics with no visible growth. For Mycobacterial cultures, the plates were read after two to three days. Susceptibility was also assessed in MOPS minimal medium with 0.4% glucose (M2106 Teknova) and RPMI-1640 medium. Serum effects were tested in MHB with 10% or 50% fetal bovine serum (Invitrogen) or human serum (Heat Inactivated, from human male AB plasma; Sigma-Aldrich). For anaerobic conditions, E. coli was incubated in BD GasPak™ EZ pouch systems. To adjust the pH of the media, 1M NaOH or 1N HCl was used.
# [3] = test system: ribosomes (E. coli PURExpress); experiment: Toeprinting assay; format: biochemical, Escherichia coli; settings: 1, 5 or 10 μM LAR, RST1 template
# Procedure: Toe-printing analysis was carried out in the E. coli in vitro transcription-translation system assembled from the purified components (PURExpress, NEB) as described previously. Reactions either contained no antibiotic or were supplemented with 50 μM retapamulin or varying concentrations of LAR (1, 5, or 10 μM). The model RST1 template encoding a 21-aa long peptide containing all 20 proteinogenic amino acids[22] was generated by PCR using the primers RST1_F and FIRST1_R (Supplementary Table 1).
# [4] = test system: E. coli strain CA244 lacZ C1456T; experiment: Miscoding assay (lacZ premature stop codon readthrough); settings: MOPS agar, X-gal 80 μg/ml, IPTG 250 μM; 60.7 μg LAR spotted, ~18 h, 37°C
# [5] = test system: common anaerobe components of the human microbiome; experiment: Activity against human gut microbiome bacteria; format: cell-based; settings: BHI, anaerobic, 37 °C
# Procedure: For MIC testing using human microbiota strains, the cultures were grown in BHI supplemented with L-cysteine (0.5g/L), Hemin (10mg/L), and Vitamin K (1mg/L) in anaerobic chambers (37 °C, 5% H2, 10% CO2, 85% N2). Candida albicans was cultivated in yeast nitrogen base (YNB) medium without amino acids (BD Difco).
# [6] = test system: Lactobacillus plantarum GC4; experiment: MIC, gut bacteria; format: cell-based; settings: column MHB; method: BHI + L-cysteine, hemin, vitamin K, anaerobic, 37 °C
# Procedure: as §1
# (§2) For MIC testing using human microbiota strains, the cultures were grown in BHI supplemented with L-cysteine (0.5g/L), Hemin (10mg/L), and Vitamin K (1mg/L) in anaerobic chambers (37 °C, 5% H2, 10% CO2, 85% N2). […]
# [7] = test system: Bacteroides fragilis GC73; experiment: MIC, gut bacteria; format: cell-based; settings: column MHB; method: BHI + L-cysteine, hemin, vitamin K, anaerobic, 37 °C
# Procedure: as §1, §2
# [8] = test system: Pseudomonas aeruginosa PAO1
# [9] = test system: E coli BW25113 ΔbamBΔtolC; settings: 18–22 h
# [10] = test system: Candida albicans ATCC 90028
# E. coli BW25113 = experiment: Selection of spontaneous resistant mutants; format: cell-based, Escherichia coli; settings: ~10^9 cfu on MOPS minimal agar, 37°C, 24–48 h
# E. coli ribosome = experiment: Translocation inhibition assay; format: biochemical, Escherichia coli; settings: 62.5 μM LAR or 250 μM negamycin, EF-G/GTP, primer extension
# E. coli = experiment: MIC under anaerobic conditions; format: cell-based, Escherichia coli; settings: anaerobic vs aerobic
# Procedure: as §1
# [11] = test system: strains with odilorhabdin-resistance mutations; experiment: MIC in odilorhabdin-resistance mutants; format: cell-based; settings: three of 10 known odilorhabdin-resistance mutations
# Procedure: as §1
# B. subtilis 168 = experiment: Selection of spontaneous resistant mutants; format: cell-based, Bacillus subtilis; settings: ~10^9 cfu on Mueller-Hinton agar, 37°C, 24–48 h
# A. baumannii C0286 = experiment: Neutropenic mouse thigh-infection model
# E. coli BW25113 membrane = experiment: Propidium iodide uptake assay; format: cell-based, Escherichia coli; settings: propidium iodide 4 μM, 30 min, RT, fluorescence
# Procedure: E. coli BW25113 cells were prepared as described above and mixed with propidium iodide (final concentration 4 μM). Cell suspension (190 μL) was then placed into wells of a 96-well black-wall plate and supplemented with 10 μL of compounds at various concentrations. Fluorescence (lex/lem: 535/617 nm) was monitored for 30 min at RT in a Synergy Microplate Reader (Biotek). Colistin was used as a positive control.
# human erythrocytes = experiment: Haemolysis
# [12] = test system: T. thermophilus 70S ribosome; experiment: X-ray structure of ribosome complex; format: binding, Thermus thermophilus
# E coli BW25113 ΔbamB = settings: 18–22 h
smiles,measurement,setting,value
"CC(C)[C@H](NC(=O)CNC(=O)[C@H](CCCNC(=N)N)NC(=O)CNC(=O)[C@H](Cc1ccccc1)NC(=O)[C@H](CCCCN)NC(=O)CNC(=O)[C@@H]1CC(=O)N[C@@H](CO)C(=O)N[C@@H](CCCCN)C(=O)N[C@@H](CCCCN)C(=O)N[C@@H](CO)C(=O)N[C@@H](CCCCN)C(=O)N2CCC[C@H]2C(=O)NCC(=O)N1)C(=O)N[C@@H](CCCCN)C(=O)N[C@@H](CCCNC(=N)N)C(=O)NCC(=O)O [LAR, lariocidin] (SKKSKPGDGKFGRGVKRG-OH; lactam N-8)",MIC,"E coli BW25113 ΔtolC; MHB, 37°C",2 to 4 µg/mL
same,MIC,"E coli BW25113 ΔtolC; RPMI-1640, 37°C",0.5 µg/mL
same,Sensitivity to resistance mechanisms,[1],unaffected by common resistance mechanisms; also recorded: mostly insensitive to mutations or enzymatic resistance mechanisms
same,Change in MIC in deletion strains,[2],no significant changes in MIC
same,Ribosome stalling (toeprint),[3],predominantly arrested at the start codon of a model mRNA but also stalled at internal codons of the ORF
same,Miscoding / premature stop codon readthrough,[4],induces miscoding; also recorded: induces premature stop codon readthrough
same,Activity vs gut microbiome anaerobes,[5],no activity
same,MIC,[6],>256 µg/mL
same,MIC,[7],>256 µg/mL
same,MIC,[8],64 to 128 µg/mL
same,MIC,"[9]; MHB, 37°C",2 to 4 µg/mL
same,MIC,"[9]; RPMI-1640, 37°C",≤0.25 µg/mL
same,Antifungal action,[10],no antifungal action
same,MIC,"[10]; column MHB, method: yeast nitrogen base (YNB) without amino acids",>256 µg/mL
same,Frequency of resistant mutants,E. coli BW25113,~ 10^−8
same,Inhibition of ribosome translocation,E. coli ribosome,inhibits ribosome translocation; also recorded: this reaction was inhibited when LAR was present
same,Increase in MIC under anaerobic conditions,E. coli,4-to-8 fold
same,Increase in LAR MIC by odilorhabdin-resistance mutations,[11],2–4 x
same,Frequency of resistant mutants,B. subtilis 168,~ 10^−8
same,"Reduction in bacterial burden, blood","A. baumannii C0286; 50 mg kg^−1 i.p. at 1, 4, 8 and 20 h post-infection, 24 h, vs vehicle, n = 8 treated",2 orders of magnitude
same,"Reduction in bacterial burden, spleen","A. baumannii C0286; 50 mg kg^−1 i.p. at 1, 4, 8 and 20 h post-infection, 24 h, vs vehicle, n = 15 treated",2 orders of magnitude
same,"Reduction in bacterial burden, thigh","A. baumannii C0286; 50 mg kg^−1 i.p. at 1, 4, 8 and 20 h post-infection, 24 h, vs vehicle, n = 30 treated",2 orders of magnitude
same,In vivo activity,A. baumannii C0286; mouse model of A. baumannii infection,potent in vivo activity
same,Survival,"A. baumannii C0286; over 48 h post-infection, 50 mg kg^−1 i.p. x4",100%
same,Appearance of treated mice,A. baumannii C0286; vs control mice,appeared much healthier than control mice
same,Membrane permeabilization,E. coli BW25113 membrane,did not permeabilize
same,Hemolytic activity,human erythrocytes,did not display hemolytic activity
same,Haemolysis,"human erythrocytes; 500 μg/ml, human erythrocytes in PBS pH 7.4, 1 h, 37°C, 540 nm, Triton X-100 = 100%",<1%
same,Ribosome binding (X-ray structure),"[12]; 70S ribosome with mRNA and tRNAs, 250 μM antibiotic",binds to the small ribosomal subunit at a distinct site adjacent to the decoding center
same,Ribosome binding without mRNA and tRNAs,"[12]; Tth ribosome lacking mRNA and tRNAs (protein Y complex), 2.6 Å",the presence of A-site tRNA is not essential for LAR binding to the ribosome
same,MIC,"E coli BW25113 ΔbamB; MHB, 37°C",32 µg/mL
same,MIC,"E coli BW25113 ΔbamB; RPMI-1640, 37°C",1 µg/mL
same,MIC,M. smegmatis MC^2 155,1 to 2 µg/mL
same,MIC (text),M. smegmatis MC^2 155,1 to 2 µg/mL
